# Experimental data taken from patent US20160022710A1, “PRENATAL AND LACTATION SUPPLEMENTS TO ENHANCE CENTRAL NERVOUS SYSTEM DEVELOPMENT OF OFFSPRING” (ABBOTT LABORATORIES, priority 2013, published 2016).
# Assay: carotenoids in neonatal brain samples
# Conditions: neonatal brain samples studied by the Applicants
row,SMILES,carotenoid occurrence in neonatal brain samples
1,CC(C)=CCC/C(C)=C/C=C/C(C)=C/C=C/C(C)=C/C=C/C=C(C)/C=C/C=C(C)/C=C/C=C(\C)CCC=C(C)C [lycopene],very few neonatal brain samples are found to contain detectable levels
2,CC1=CC(O)CC(C)(C)[C@H]1/C=C/C(C)=C/C=C/C(C)=C/C=C/C=C(C)/C=C/C=C(C)/C=C/C1=C(C)C[C@@H](O)CC1(C)C (stereo partly drawn) [trans-lutein],predominant carotenoid in the majority of neonatal brain samples
